According to patent publication US20230136600A1, “Method and device for screening antigen epitope polypeptide” (priority 2020, published 2023):

System: Balb/c mice
Assay: Polypeptide chip-based vaccine immunogenicity scoring system
Assay type: in vivo
Parameters: key to A2: whether the 95 percentile of the last sampling is increased compared with the end point: Y = rise; N = no rise
[1] = Embodiment III, polypeptide-KLH
[2] = Embodiment III, polypeptide-KLH, Mix1-10
[3] = Embodiment III, polypeptide-KLH, total score = 5
[4] = Embodiment III, polypeptide-KLH, value of the whole mix
[5] = adjuvant AddaVax, 7 peptides co-immunized in mice
[6] = adjuvant Adju-Phos, 7 peptides co-immunized in mice
[7] = adjuvant Alhydrogel, 7 peptides co-immunized in mice
[8] = adjuvant Imjet Alumn, 7 peptides co-immunized in mice
[9] = adjuvant MA103A, 7 peptides co-immunized in mice
[10] = adjuvant MA103B, 7 peptides co-immunized in mice

## LQDLKWARFPKS [SEQ ID NO:29]
[1]
  B1: D 0-D 14 95 percentile rise in the number of mice: 3
  B2: D 0-D 21 95 percentile rise in the number of mice: 3
  B3: D 14-D 21 95 percentile rise in the number of mice: 2
  B4: D 21-D 28 95 percentile rise in the number of mice: 0
[2]
  A1: difference between a highest median and a D 0 median (95 percentile): 0.10
  A2: whether the 95 percentile of the last sampling is increased compared with the end point: N
Embodiment III, polypeptide-KLH, A*3 + B*2 + C*1
  Total single peptide: 16.3
[3]
  A: 95 percentile grouping number score: 4
  B: Mouse performance score: 1.9
[4]
  C1: #A timing-sequence response peptide fragment set: 257
  C2: #B vaccine specificity peptide fragment set: 682
  C3: Intersection of A and B: 3
  C4: Percentage of the intersection in set B: 0.440
  C: Timing-sequence response and specificity score: 0.5
[5]
  1) 95 percentile grouping number A: 4
  1) 95 percentile grouping number A1: 0.055
  2) Mouse performance B: 3.5
  2) Mouse performance B1: 3
  2) Mouse performance B2: 5
  2) Mouse performance B3: 4
  3) Timing-sequence response and specificity C: 0
  3) Timing-sequence response and specificity C1: 237
  3) Timing-sequence response and specificity C2: 1244
  3) Timing-sequence response and specificity C3: 0
  3) Timing-sequence response and specificity C4: 0.000
  Total single peptide: 19
[6]
  1) 95 percentile grouping number A: 3.5
  1) 95 percentile grouping number A1: 0.055
  2) Mouse performance B: 1.9
  2) Mouse performance B1: 3
  2) Mouse performance B2: 3
  2) Mouse performance B3: 1
  3) Timing-sequence response and specificity C: 0
  3) Timing-sequence response and specificity C1: 203
  3) Timing-sequence response and specificity C2: 1244
  3) Timing-sequence response and specificity C3: 0
  3) Timing-sequence response and specificity C4: 0.000
  Total single peptide: 14.3
[7]
  1) 95 percentile grouping number A: 3
  1) 95 percentile grouping number A1: 0.04
  2) Mouse performance B: 1.9
  2) Mouse performance B1: 5
  2) Mouse performance B2: 2
  2) Mouse performance B3: 0
  3) Timing-sequence response and specificity C: 1
  3) Timing-sequence response and specificity C1: 123
  3) Timing-sequence response and specificity C2: 1244
  3) Timing-sequence response and specificity C3: 2
  3) Timing-sequence response and specificity C4: 0.161
  Total single peptide: 13.3
[8]
  1) 95 percentile grouping number A: 5
  1) 95 percentile grouping number A1: 0.08
  2) Mouse performance B: 2.5
  2) Mouse performance B1: 5
  2) Mouse performance B2: 3
  2) Mouse performance B3: 1
  3) Timing-sequence response and specificity C: 1
  3) Timing-sequence response and specificity C1: 100
  3) Timing-sequence response and specificity C2: 1244
  3) Timing-sequence response and specificity C3: 3
  3) Timing-sequence response and specificity C4: 0.241
  Total single peptide: 20.5
[9]
  1) 95 percentile grouping number A: 5
  1) 95 percentile grouping number A1: 0.08
  2) Mouse performance B: 2.9
  2) Mouse performance B1: 5
  2) Mouse performance B2: 5
  2) Mouse performance B3: 1
  3) Timing-sequence response and specificity C: 1
  3) Timing-sequence response and specificity C1: 260
  3) Timing-sequence response and specificity C2: 1244
  3) Timing-sequence response and specificity C3: 3
  3) Timing-sequence response and specificity C4: 0.241
  Total single peptide: 21.3
[10]
  1) 95 percentile grouping number A: 4.5
  1) 95 percentile grouping number A1: 0.065
  2) Mouse performance B: 3.7
  2) Mouse performance B1: 5
  2) Mouse performance B2: 5
  2) Mouse performance B3: 3
  3) Timing-sequence response and specificity C: 0
  3) Timing-sequence response and specificity C1: 153
  3) Timing-sequence response and specificity C2: 1244
  3) Timing-sequence response and specificity C3: 0
  3) Timing-sequence response and specificity C4: 0.000
  Total single peptide: 20.9
